Test results taken from patent US20210387968A1, “HETEROARYLMETHYLENE DERIVATIVES AS DNA POLYMERASE THETA INHIBITORS” (IDEAYA Biosciences, Inc., priority 2019, published 2021).

Target: T1, Pol theta polymerase domain (residues 1819-2590) (Homo sapiens, UniProt O75417)
T1 construct: Pol theta polymerase domain (residues 1819-2590) at a final concentration of 4 nM
T1 sequence (O75417 1819-2590): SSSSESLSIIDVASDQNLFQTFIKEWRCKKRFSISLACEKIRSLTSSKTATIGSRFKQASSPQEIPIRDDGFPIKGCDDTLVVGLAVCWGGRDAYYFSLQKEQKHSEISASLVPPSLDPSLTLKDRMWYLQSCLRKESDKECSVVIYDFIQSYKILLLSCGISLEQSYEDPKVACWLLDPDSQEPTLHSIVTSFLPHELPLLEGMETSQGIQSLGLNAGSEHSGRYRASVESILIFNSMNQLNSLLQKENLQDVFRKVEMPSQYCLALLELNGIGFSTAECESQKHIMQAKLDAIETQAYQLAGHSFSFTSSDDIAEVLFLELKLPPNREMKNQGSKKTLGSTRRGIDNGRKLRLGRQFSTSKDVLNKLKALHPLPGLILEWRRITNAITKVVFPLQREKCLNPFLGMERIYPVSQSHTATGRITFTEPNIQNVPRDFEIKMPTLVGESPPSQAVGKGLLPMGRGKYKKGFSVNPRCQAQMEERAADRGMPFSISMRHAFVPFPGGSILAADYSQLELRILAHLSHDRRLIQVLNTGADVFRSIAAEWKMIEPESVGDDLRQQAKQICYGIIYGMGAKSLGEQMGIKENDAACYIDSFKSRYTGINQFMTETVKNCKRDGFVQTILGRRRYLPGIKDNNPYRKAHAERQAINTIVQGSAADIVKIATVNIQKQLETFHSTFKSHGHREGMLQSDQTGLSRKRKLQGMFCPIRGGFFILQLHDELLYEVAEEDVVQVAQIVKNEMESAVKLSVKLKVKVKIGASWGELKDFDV
Assay: Pol theta polymerase primer extension assay (molecular beacon fluorescence)
Format: biochemical
Settings: 4 nM enzyme, 15 min pre-incubation, fluorescence change over 30 min
Experimental: The ability of the compounds of Formula (I) to inhibit polymerase activity of Pol theta was determined using the assay described below.
A mixture of 20 uL of Pol theta polymerase domain (residues 1819-2590) at a final concentration of 4 nM in assay buffer (20 m M TRIS, pH 7.80, 50 mM KCl, 10 mM MgCl2, 1 mM DTT, 0.01% BSA, 0.01% Tween20) was added to test compounds (11-point dilution series of test compounds) except the low control wells without test compounds. The above enzyme and test compound inhibitor mixture was then incubated at room temperature for 15 min. An equal volume (20 μl) of dNTP substrate mix (48 μM) and primed molecular beacon DNA (obtained by annealing template SEQ ID NO 2: (5′-CCTTCCTCCCGTGTCTTG-TACCTTCCCGTCA-GGAGGAAGG-3′) with 5′-TAMRA and 3′-BHQ and primer DNA (SEQ ID NO 3: 5′-GACGGGAAGG-3′) in 10 mM Tris-HCl pH 8.0, 100 mM NaCl buffer) (96 nM) in assay buffer was added to all the test wells. The inhibition activity was measured by monitoring the fluorescence change over 30 min at 535 nm upon excitation at 485 nm. The high control (DMSO with enzyme) with high fluorescence intensity represents no inhibition of polymerase reaction while the low control (DMSO with buffer) with low fluorescence intensity represents full inhibition of polymerase activity. Slope of the reaction progress curves were used to calculate the rate of polymerization. The rates were used to determine the percent inhibition using a four-parameter inhibition model to generate IC50, Hill slope and max inhibition.

“2-([[1-(4-fluorophenyl)-4- (trifluoromethyl)imidazol-2- yl]methyl]amino)-4,6- bis(trifluoromethyl)benzonitrile [compound 9]” was tested, and the IC50 was less than 200 nM.

In the case of `Cc1nc(OCc2nccn2-c2ccccc2)c(C#N)c(C)c1Cl` [compound 1, 5-chloro-4,6-dimethyl-2-((1-phenyl-1H-imidazol-2-yl)methoxy)-nicotinonitrile], the IC50 is reported as 500 to 1000 nM.

Molecule `Cc1nc(NCc2nccn2-c2ccccc2)c(C#N)c(C)c1Cl` [compound 2, 5-chloro-4,6-dimethyl-2-((1-phenyl-1H-imidazol-2-yl)methylamino)-nicotinonitrile] has an IC50 of less than 200 nM.

For `Cc1nc(NCc2nccn2-c2ccc(F)cc2)c(C#N)c(C)c1Cl` [compound 3, 5-chloro-2-(((1-(4-fluorophenyl)-1H-imidazol-2-yl)methyl)amino)-4,6-dimethyl-nicotinonitrile], the IC50 was less than 200 nM.

`Fc1ccc(-n2ccnc2CNc2cc(Cl)cc(C(F)(F)F)c2)cc1` [compound 4, 3-chloro-N-((1-(4-fluorophenyl)-1H-imidazol-2-yl)methyl)-5-(trifluoromethyl)-benzenamine] was tested, and the IC50 was less than 200 nM.

Work on `N#Cc1c(C(F)(F)F)cc(C(F)(F)F)nc1NCc1nccn1-c1ccc(F)cc1` [compound 5, 2-([[1-(4-fluorophenyl)-1H-imidazol-2-yl]methyl]amino)-4,6-bis(trifluoromethyl)-pyridine-3-carbonitrile] yielded an IC50 of less than 200 nM.

For `COc1ccc(-n2ccnc2CNc2nc(C(F)(F)F)cc(C(F)(F)F)c2C#N)cc1` [compound 6, 2-([[1-(4-methoxyphenyl)-1H-imidazol-2-yl]methyl]amino)-4,6-bis(trifluoromethyl)-pyridine-3-carbonitrile], the IC50 was less than 200 nM.

`N#Cc1c(C(F)(F)F)cc(C(F)(F)F)nc1NCc1nccn1Cc1ccc(F)cc1` [compound 7, 2-[([1-[(4-fluorophenyl)methyl]-1H-imidazol-2-yl]methyl)amino]-4,6-bis-(trifluoromethyl)pyridine-3-carbonitrile] showed an IC50 of less than 200 nM.

For `N#Cc1c(C(F)(F)F)cc(C(F)(F)F)nc1OCc1nccn1-c1ccc(F)cc1` [compound 8, 2-[[1-(4-fluorophenyl)-1H-imidazol-2-yl]methoxy]-4,6-bis(trifluoromethyl)-pyridine-3-carbonitrile], the IC50 was less than 200 nM.

In the case of `N#Cc1c(C(F)(F)F)cc(C(F)(F)F)nc1NCc1nccnc1-c1ccc(F)cc1` [compound 10, 2-((3-(4-fluorophenyl)pyrazin-2-yl)methylamino)-4,6-bis(trifluoromethyl)-nicotinonitrile], the IC50 is reported as less than 200 nM.

`N#Cc1c(C(F)(F)F)cc(C(F)(F)F)nc1NCc1ncncc1-c1ccc(F)cc1` [compound 11, 2-((5-(4-fluorophenyl)pyrimidin-4-yl)methylamino)-4,6-bis(trifluoromethyl)-nicotinonitrile] was tested, and the IC50 was less than 200 nM.

For `N#Cc1c(C(F)(F)F)cc(C(F)(F)F)nc1NCc1nncn1-c1ccc(F)cc1` [compound 12, 2-((4-(4-fluorophenyl)-4H-1,2,4-triazol-3-yl)methylamino)-4,6-bis(trifluoromethyl)-nicotinonitrile], the IC50 was less than 200 nM.

`CC(Nc1nc(C(F)(F)F)cc(C(F)(F)F)c1C#N)c1nccn1-c1ccc(F)cc1` (stereo not drawn) [compound 13, 2-([1-[1-(4-fluorophenyl)imidazol-2-yl]ethyl]amino)-4,6-bis(trifluoromethyl)pyridine-3-carbonitrile] gave an IC50 of less than 200 nM.

Work on `Cn1cc(-c2ccc(F)cc2)c(CNc2nc(C(F)(F)F)cc(C(F)(F)F)c2C#N)n1` [compound 14, 2-(((4-(4-fluorophenyl)-1-methyl-1H-pyrazol-3-yl)methyl)amino)-4,6-bis(trifluoromethyl)nicotinonitrile] yielded an IC50 of 1000 to 10000 nM.

With `N#Cc1c(C(F)(F)F)cc(C(F)(F)F)nc1NCc1n[nH]cc1-c1ccc(F)cc1` [compound 15, 2-(((4-(4-fluorophenyl)-1H-pyrazol-3-yl)methyl)amino)-4,6-bis(trifluoromethyl)-nicotinonitrile] the IC50 was 1000 to 10000 nM.

With `N#Cc1c(C(F)(F)F)cc(C(F)(F)F)nc1NCc1ncccc1-c1ccc(F)cc1` [compound 16, 2-(((3-(4-fluorophenyl)pyridin-2-yl)methyl)amino)-4,6-bis(trifluoromethyl)-nicotinonitrile] the IC50 was less than 200 nM.

In the case of `N#Cc1c(C(F)(F)F)cc(C(F)(F)F)nc1NCc1nccnc1-c1ccc(F)cc1Cl` [compound 17, 2-([[3-(2-chloro-4-fluorophenyl)-pyrazin-2-yl]methyl]amino)-4,6-bis(trifluoromethyl)pyridine-3-carbonitrile], the IC50 is reported as 500 to 1000 nM.

In the case of `N#Cc1c(C(F)(F)F)cc(C(F)(F)F)nc1NCc1ncncc1-c1ccncc1` [compound 18, 2-([[5-(pyridin-4-yl)pyrimidin-4-yl]methyl]amino)-4,6-bis(trifluoro-methyl)pyridine-3-carbonitrile], the IC50 is reported as 1000 to 10000 nM.

Work on `N#Cc1c(C(F)(F)F)cc(C(F)(F)F)nc1OCc1ncccc1-c1ccc(F)cc1` [compound 19, 2-[[3-(4-fluorophenyl)pyridin-2-yl]methoxy]-4,6-bis(trifluoromethyl)pyridine-3-carbonitrile] yielded an IC50 of less than 200 nM.

`Cc1ccc(-c2ccc(F)cc2)c(CNc2nc(C(F)(F)F)cc(C(F)(F)F)c2C#N)n1` [compound 20, 2-([[3-(4-fluorophenyl)-6-methylpyridin-2-yl]methyl]amino)-4,6-bis(trifluoromethyl)pyridine-3-carbonitrile] was tested, and the IC50 was less than 200 nM.

For `N#Cc1c(C(F)(F)F)cc(C(F)(F)F)nc1NCc1nccnc1-c1ccccn1` [compound 21, 2-(((3-(pyridin-2-yl)pyrazin-2-yl)methyl)amino)-4,6-bis(trifluoromethyl)-nicotinonitrile], the IC50 was 200 to 500 nM.

For `N#Cc1c(C(F)(F)F)cc(C(F)(F)F)nc1NCc1ncccc1-c1ccccn1` [compound 22], the IC50 was less than 200 nM.

Molecule `N#Cc1c(C(F)(F)F)cc(C(F)(F)F)nc1NCc1nc(O)ccc1-c1ccc(F)cc1` [compound 23, 2-([[3-(4-fluorophenyl)-6-oxo-1H-pyridin-2-yl]methyl]amino)-4,6-bis(trifluoro-methyl)pyridine-3-carbonitrile] has an IC50 of less than 200 nM.

With `N#Cc1ccc(-c2ccc(F)cc2)c(CNc2nc(C(F)(F)F)cc(C(F)(F)F)c2C#N)n1` [compound 24, 6-([[3-cyano-4,6-bis(trifluoromethyl)pyridin-2-yl]amino]methyl)-5-(4-fluorophenyl)pyridine-2-carbonitrile] the IC50 was less than 200 nM.

`N#Cc1c(C(F)(F)F)cc(C(F)(F)F)nc1NCc1ncccc1-c1ccc(Br)cc1` [compound 25, 2-([[3-(4-bromophenyl)pyridin-2-yl]methyl]amino)-4,6-bis(trifluoromethyl)-pyridine-3-carbonitrile] gave an IC50 of less than 200 nM.

Molecule `N#Cc1c(C(F)(F)F)cc(C(F)(F)F)nc1NCc1ncnn1-c1ccc(F)cc1` [compound 26, 2-(((1-(4-fluorophenyl)-1H-1,2,4-triazol-5-yl)methyl)amino)-4,6-bis(trifluoro-methyl)nicotinonitrile] has an IC50 of 200 to 500 nM.

In the case of `COc1ccc(-c2ccc(F)cc2)c(CNc2nc(C(F)(F)F)cc(C(F)(F)F)c2C#N)n1` [compound 27, 2-([[3-(4-fluorophenyl)-6-methoxypyridin-2-yl]methyl]amino)-4,6-bis(trifluoromethyl)pyridine-3-carbonitrile], the IC50 is reported as 1000 to 10000 nM.
